Patent US12472185B2, “Methods for killing antibiotic tolerant bacteria” (THE PENN STATE RESEARCH FOUNDATION, priority 2020, dated 2025)

Assays:
[1] = system: P. aeruginosa PA14 exponential cells; assay: Survival of exponentially-growing cells (drop assay); format: cell-based, Pseudomonas aeruginosa; details: 100 μM
Method: (§1) FIG. 2. NPIMA eradicates Escherichia coli, Pseudomonas aeruginosa, and Staphylococcus aureus exponential cells. Survival after 6 hr for (a) E. coli BW25113 with NPIMA and 5-iodoindole at 100 μM, (b) P. aeruginosa PA14 with NPIMA and 5-iodoindole at 100 μM, and (c) S. aureus with NPIMA and 5-iodoindole at 200 μM. Asterisk indicates no viable cells detected. NPIMA, 5-nitro-3-phenyl-1H-indol-2-yl-methylamine hydrochloride.
(§2) For bacterial viability, cells were washed twice with 0.85% NaCl, resuspended in 1×PBS, and cell counts were determined via the drop assay (Donegan, Matyac, Seidler, & Porteous, 1991). For human cell viability, pre-cultured human cancer HT-29 cells were dispensed in 98 μl in 96-well plates with approximately 5,000 cells/well. NPIMA was added (2 μl) to produce concentrations of 5, 10, 100, and 200 μM. For controls, Triton X-100 (positive control) and DMSO (negative solvent control), were used, and the medium was used for background. Plates were incubated in a humidified incubator (37° C., 5% CO2) for 24 hr. Cell viability was determined via a cell counting kit (CCK-8 Kit, ab228554; Abcam), and cytotoxicity was determined via the lactate dehydrogenase (LDH) assay (LDH Assay Kit, MK401; Takara).

E. coli persister cells = assay: ChemBridge screen for persister cell killing; format: cell-based, Escherichia coli; details: 100 μM, 24 hr
Method: FIG. 1. […] Escherichia coli persister cells were treated for 24 hr at 100 μM with: • 1: N-(3,4-dichlorophenyl)-N′-(3-fluorophenyl) thiourea; • 2: 2-({2-[(4-bromophenyl)amino]-4-quinazolinyl}amino)ethanol hydrochloride; • 3: 2-[(6-phenyl-2,3,4,9-tetrahydro-1H-carbazol-1-yl)amino] ethanol; • 4: 1-(3,6-dichloro-9H-carbazol-9-yl)-3-(2-methyl-1H-imidazol-1-yl)-2-propanol; • 5: N-[2-(4-fluorophenyl)ethyl]-N′-(4-nitrophenyl) thiourea; • 6: N-(4-chlorobenzyl)-N′-4-pyridinylthiourea; • 7: N′-(3,5-dichloro-2-hydroxybenzylidene)-2-oxo-4-phenyl-3-pyrrolidinecarbohydrazide; and • 8: [(5-nitro-3-phenyl-1H-indol-2-yl)methyl]amine hydrochloride (NPIMA, structure shown in inset).
To identify compounds that kill E. coli persister cells, 10,000 compounds of the DIVERset Library from ChemBridge (San Diego, CA) were tested by adding 4 μl of each (in DMSO, final concentration 100 μM) to 186 μl of LB in 96-well plates along with 10 μl of persister cells; the persister cells were added after the ChemBridge chemical since LB wakes persister cells (Kim, Yamasaki, et al., 2018). For the negative control, pure DMSO (final concentration 2 vol %) was used. The degree of inhibition was determined by the change in turbidity at 600 nm after 24 hr. The best 26 compounds were re-tested with the same conditions.
To screen directly for killing persister cells, a high-throughput approach using 96-well microtiter plates was devised that consisted of (a) washing persister cells formed from exponentially-growing cells using rifampicin pretreatment followed by ampicillin treatment, (b) adding 10 μl of the persister cells to 190 μl of LB containing one each of the 10,000 compounds of the DiverSet library dissolved in dimethyl sulfoxide (100 μM final concentration), and (c) monitoring for growth via change in turbidity for 24 hr. With this approach, we allowed for up to a 140-fold change in turbidity (0.005 could be increased to 0.69).

E. coli BW25113 = assay: Lysis assays (total protein and DNA in supernatants); format: cell-based, Escherichia coli; details: 100 μM, 1 hr
Method: FIG. 5. NPIMA lyses Escherichia coli, Pseudomonas aeruginosa, and Staphylococcus aureus. Total protein (a) and DNA (b) found in supernatants as evidence of cell lysis after treatment of cells at a turbidity of 0.8 at 600 nm with 100 μM NPIMA after 1 hr for E. coli and P. aeruginosa and 6 hr for S. aureus. NPIMA, 5-nitro-3-phenyl-1H-indol-2-yl-methylamine hydrochloride.
Exponentially-growing E. coli BW25113 cells (turbidity 0.8 at 600 nm) were washed twice with 0.85% NaCl, resuspended in 1 ml of 1×PBS, and NPIMA (100 μM) was added for 1 hr for E. coli and P. aeruginosa and 6 hr for S. aureus with shaking at 250 rpm (0.1% DMSO was used as the negative control). Cell supernatants were collected after centrifuging at 6,500 g (4° C. for 15 min), and total protein was measured by the Bicinchoninic Acid (BCA) protein assay Kit (Prod #23227; Pierce). DNA in the supernatant (199 μl) was detected by adding 1 μl of Picogreen (P7589; Invitrogen) and incubating for 5 min at room temperature in the dark room. The fluorescence signal was read by a Tecan microplate reader (Infinite M200PRO) with 480 nm excitation and 520 nm emission by utilizing a calibration curved made with plasmid pEX18Ap at 0, 0.004, 0.008, 0.016, 0.063, 0.125, 0.25, and 0.5 ng/μl.

S. aureus cells = assay: Survival of cells (drop assay); format: cell-based, Staphylococcus aureus; details: 200 μM
Method: as §1, §2

Question: `Cl.NCc1[nH]c2ccc([N+](=O)[O-])cc2c1-c1ccccc1` [NPIMA, [(5-nitro-3-phenyl-1H-indol-2-yl)methyl]amine hydrochloride] was tested. Which “time to eradicate exponentially-growing P. aeruginosa PA14 cells” value [1] did it give?
Answer: 6 h

Question: What about the “change of turbidity during first and second screen” value (E. coli persister cells) of the same compound?
Answer: reduced the turbidity

Question: And the “persister killing, second screen (FIG. 1)” value (E. coli persister cells; hydrochloride)?
Answer: substantially more effective than the other compounds

Question: What about the “persister killing, second screen (FIG. 1)” value (E. coli persister cells; listed as 8, hydrochloride) of the same compound?
Answer: Most effective

Question: What about the “increase in DNA in the supernatants compared to DMSO alone” value (E. coli BW25113) of the same compound?
Answer: 3.8±0.8

Question: What about the “increase in total cell protein in supernatants compared to DMSO alone” value (E. coli BW25113) of the same compound?
Answer: 10±2

Question: What about the “time to eradicate S. aureus cells” value (S. aureus cells) of the same compound?
Answer: 3 h
